Source: patent US6433178B1, “3-alkyl-3-phenyl-piperidines” (Warner-Lambert Company, priority 1996, dated 2002)

Assays:
[1] = molecular target: T1, human NK1 receptors (Homo sapiens, UniProt P25103); assay: Receptor binding in transfected CHO cells (125I-labeled ligand displacement), NK1; conditions: CHO cells expressing human NK1; 0.2 nM 125I-labeled ligand; 1 hour at room temperature
T1 construct: expressed in transfected cells; host or cells: CHO cells
Protocol: (§1) 1. Receptor Binding in Transfected CHO Cells
(§2) CHO cells expressing either human NK1 or NK3 receptors were cultured in Ham's F-12 Nutrient Mixture supplemented with 10% fetal call serum and 1% penicillin/streptomycin. Cells were seeded to 96-well Wallac (Gaithersburg, Md.) rigid crosstalk corrected cell culture plate 1 day before experiment. On the day of each experiment, cells were washed twice with phosphate buffered saline (PBS) and appropriate agonists or antagonists were added and incubated in 0.2 nM ^125I-labeled ligand in PBS containing 0.4 mg/mL BSA, 0.08 mg/mL bacitracin, 0.004 mg/mL chymostatin, 0.004 mg/mL leupeptin, 1 μM thiorphan, 25 μM phosphoramidon, and 2 mM MnCl2. The cells were incubated for 1 hour at room temperature and the reactions terminated by two washes with ice cold PBS. Fifty microliters of 2% SDS followed by 175 μL of Ready Gel (Beckman) were added to each well. Plates were vortexed, and the radioactivity was quantified in a Wallac 1450 microbeta scintillation counter. Nonspecific binding was determined in the presence of 1 μM unlabeled corresponding ligand. Receptor binding data were analyzed with nonlinear curve fitting using KaleidaGraph software package (PCS Inc., Reading, Pa.). IC50 values were determined using a modified Hill equation, [formula]
(§3) where cold ligand represents unlabeled ligand, L represents the concentration of unlabeled ligand, n the Hill coefficient, and IC50 the concentration of unlabeled ligand that causes 50% inhibition of the total specific binding of 0.2 nM radiolabeled ligand.

[2] = molecular target: T2, NK3 receptors (Homo sapiens, UniProt P29371); assay: Receptor binding in transfected CHO cells (125I-labeled ligand displacement), NK3; conditions: CHO cells expressing human NK3; 0.2 nM 125I-labeled ligand; 1 hour at room temperature
T2 construct: expressed in transfected cells; host or cells: CHO cells
T2 sequence (P29371 1-465): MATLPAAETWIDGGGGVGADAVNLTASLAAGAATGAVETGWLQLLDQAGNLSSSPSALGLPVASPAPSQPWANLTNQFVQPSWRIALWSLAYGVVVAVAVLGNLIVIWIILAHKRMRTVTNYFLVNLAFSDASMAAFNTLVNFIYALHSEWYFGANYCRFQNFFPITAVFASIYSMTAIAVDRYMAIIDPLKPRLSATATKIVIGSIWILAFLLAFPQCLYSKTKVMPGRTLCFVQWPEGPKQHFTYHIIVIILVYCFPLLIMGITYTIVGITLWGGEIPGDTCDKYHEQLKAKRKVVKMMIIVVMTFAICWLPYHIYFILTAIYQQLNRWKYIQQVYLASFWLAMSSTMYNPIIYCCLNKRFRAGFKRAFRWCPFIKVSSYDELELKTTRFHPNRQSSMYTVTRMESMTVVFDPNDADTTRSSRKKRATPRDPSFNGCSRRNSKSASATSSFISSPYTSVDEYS
Protocol: as §1, §2, §3

[3] = molecular target: T2, NK3 receptors; assay: Inhibition of agonist-induced phosphatidylinositol turnover (inositol phosphates accumulation) in transfected CHO cells; assay type: cell-based; conditions: CHO cells expressing NK3 receptors; 1 μM of tested compounds; pKB=log(dose ratio−1)−log[B]
Protocol: 2. Inhibition of Phosphatidylinositol Turnover in Transfected CHO Cells
The inhibitory effects of these compounds on agonist-induced phosphatidylinositol turnover was estimated by measuring their effects on inositol phosphates (IP) accumulation in CHO cells expressing NK3 receptors. Briefly, cells (10,000/well) were seeded in 96-well cell culture plates 24 hours before changing medium to EMEM/F-12 (w/Earle's salt, w/glutamine; GIBCOL) containing 10 μCi/mL [^3H]inositol. After overnight incubation with [^3H]inositol, medium was removed and cells were washed twice with assay buffer (MEM with 10 mM LiCl, 20 mM HEPES, and 1 mg/mL BSA). Cells were then incubated with various concentrations of agonists with or without 1 μM of tested compounds for 1 hour. Reactions were stopped by two washes with ice-cold PBS followed by the addition of 0.1 mL ice-cold 5% TCA to each well. The TCA extract was applied to a […] column containing AG 1-X8 resin (Bio-Rad) and washed three times with 5 mM myo-inositol. Inositol phosphates (IP) was eluted with 1 M ammonium formate/0.1 M formic acid. Radioactivity was determined by liquid scintillation counting. Data were analyzed with nonlinear curve fitting using KaleidaGraph software package (PCS Inc, Reading, Pa.). The pKB values in Table 2 were calculated according to the formula: pKB=log(dose ratio−1)−log[B].

[4] = Pharmacokinetics in male Wistar rats after an oral dose; assay type: in vivo; conditions: oral dose of ~20 mg/kg, solution in PEG 400/Ethanol/Water (40/15/45); for AUC / Cmax / Tmax / half-life: rat, plasma; for AUC: read-out: AUC(0-tldc) (area under the plasma concentration-time curve from zero time to the last detectable concentration); for Cmax: read-out: Cmax (the highest plasma concentration); for Tmax: read-out: tmax (time to reach the highest plasma concentration); for half-life: read-out: t½ (terminal elimination half-life) (converted)

T1 sequence (P25103 whole entry): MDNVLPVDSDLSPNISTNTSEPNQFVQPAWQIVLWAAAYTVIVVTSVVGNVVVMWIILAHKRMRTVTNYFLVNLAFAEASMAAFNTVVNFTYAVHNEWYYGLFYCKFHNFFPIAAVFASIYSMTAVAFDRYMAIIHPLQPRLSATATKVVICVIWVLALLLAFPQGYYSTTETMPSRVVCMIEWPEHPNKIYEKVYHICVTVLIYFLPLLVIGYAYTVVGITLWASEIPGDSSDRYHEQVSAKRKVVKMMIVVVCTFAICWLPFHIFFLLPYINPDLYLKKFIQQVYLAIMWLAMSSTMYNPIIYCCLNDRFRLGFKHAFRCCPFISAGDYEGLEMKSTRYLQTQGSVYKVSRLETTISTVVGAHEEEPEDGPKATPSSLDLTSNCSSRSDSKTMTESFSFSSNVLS

Structure (SMILES) | IC50 [1] | IC50 [2] | pKB [3] | tmax (time to reach the highest plasma concentration) ([4]; mean) | AUC(0-tldc) (area under the plasma concentration-time curve from zero time to the last detectable concentration) ([4]; mean (SD)) | Cmax (the highest plasma concentration) ([4]; mean (SD)) | Kb [3] | AUC ([4]; mean (SD)) | Cmax ([4]; mean (SD)) | Tmax ([4]; mean) | half-life ([4]; mean)
Cl.O=C(c1ccccc1)N1CCCC(CCCN2CCC(O)(CS(=O)(=O)c3ccccc3)CC2)(c2ccc(Cl)c(Cl)c2)C1 (centres unmarked) [Compound 20-1, {3-[3-(4-Benzensulfonylmethyl-4-hydroxy-piperidin-1-yl]-3-(3,4-dichlorophenyl)-piperidin-1-yl}-phenyl-methanone monohydrochloride] | > 1 µM | 0.0059 ± 0.0004 µM | – | – | – | – | – | – | – | – | –
Cl.O=C(c1ccccc1)N1CCCC(CCCN2CCC(O)(CS(=O)(=O)c3ccccc3)CC2)(c2ccc(Cl)c(Cl)c2)C1 (centres unmarked) [Compound 20-1] | – | – | 8.2 ± 0.4 | 1.3 h | 366 (140) ng · hr/mL | 74.0 (12.9) ng/mL | – | – | – | – | –
Cl.O=C(c1ccccc1)N1CCCC(CCCN2CCC(O)(c3ccccc3)CC2)(c2ccc(Cl)c(Cl)c2)C1 (centres unmarked) [Compound 20-2, {3-(3,4-Dichlorophenyl)-3-[3-(4-hydroxy-4-phenyl-piperidin-1-yl)-propyl]-piperidin-1-yl}-phenyl-methanone monohydrochloride] | > 1 µM | 0.0062 ± 0.0006 µM | – | – | – | – | 0.00501 µM | 716 ng·h/mL | 125 ng/mL | 1.3 h | 7.4 h
Cl.O=C(c1ccccc1)N1CCCC(CCCN2CCC(c3ccccc3)CC2)(c2ccc(Cl)c(Cl)c2)C1 (centres unmarked) [Compound 20-3, {3-(3,4-Dichlorophenyl)-3-[3-(4-phenyl-piperidin-1-yl)-propyl]-piperidin-1-yl}-phenyl-methanone monohydrochloride] | 0.694 ± 0.089 µM | 0.0178 ± 0.0015 µM | – | – | – | – | 0.0126 µM | 572 ng·h/mL | 107 ng/mL | 1.8 h | –
CC(=O)N(C)C1(c2ccccc2)CCN(CCC[C@]2(c3ccc(Cl)c(Cl)c3)CCCN(C(=O)c3ccccc3)C2)CC1 [SR 142801, reference compound] | – | – | – | – | – | – | – | 703 ng·h/mL | 133 ng/mL | 1.8 h | 5.3 h
